Experimental data as given in patent publication US20260124201A1, “CYCLOPENTANE COMPOUND” (Kissei Pharmaceutical Co., Ltd., priority 2022, published 2026).

biological target: T1, human OX2R (Homo sapiens, UniProt O43614); assay: Measurement of OX2R agonist activity (intracellular calcium concentration change, Fluo4-AM, FDSS 7000); assay type: cell-based; conditions: compound concentration 10 μM; human OX2R-expressing CHO-K1 cells; 1 μM human orexin A peptide = 100%, medium alone = 0%
T1 construct: expressed in transfected cells
T1 sequence (O43614 1-444): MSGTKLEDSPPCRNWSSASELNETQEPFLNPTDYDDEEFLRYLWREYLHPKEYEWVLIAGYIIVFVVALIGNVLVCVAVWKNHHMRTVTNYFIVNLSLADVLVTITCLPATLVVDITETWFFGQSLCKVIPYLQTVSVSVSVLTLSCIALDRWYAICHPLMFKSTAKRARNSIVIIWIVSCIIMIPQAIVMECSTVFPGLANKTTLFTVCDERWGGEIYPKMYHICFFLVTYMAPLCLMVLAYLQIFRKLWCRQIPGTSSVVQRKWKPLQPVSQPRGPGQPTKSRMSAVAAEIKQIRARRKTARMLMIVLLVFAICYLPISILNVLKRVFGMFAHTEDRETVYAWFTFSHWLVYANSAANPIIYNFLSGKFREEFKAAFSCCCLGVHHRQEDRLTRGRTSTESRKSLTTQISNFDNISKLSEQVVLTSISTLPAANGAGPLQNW
From the text: The following abbreviations in the description, the figures and the tables have the following meanings, respectively. • AZADOL (registered trademark): 2-Hydroxy-2-azaadamantane • Boc2O: di-tert-butyl dicarbonate • DIPEA: N,N-diisopropylethylamine • DCM: dichloromethane • DMAP: 4-dimethylaminopyridine • DMF: N,N-dimethylformamide • DMSO: dimethylsulfoxide • Deoxo-Fluor: bis(2-methoxyethyl)-aminosulfur trifluoride • HATU: O-(7-azabenzotriazol-1-yl)-N,N,N′,N′-tetramethyluronium hexafluorophosphate • LDA: lithium diisopropylamide • MeCN: acetonitrile • Me4tBuXPhos: 2-di-tert-butylphosphino-3,4,5,6-tetramethyl-2′,4′,6′-triisopropyl-1,1′-biphenyl • MTBE: methyl tert-butyl ether • NMP: N-methylpyrrolidone • PdCl2(PPh3)2: dichlorobis(triphenylphosphine)palladium(II) • Pd(dba)2: bis(dibenzylideneacetone)palladium(0) • Pd2(dba)3: tris(dibenzylideneacetone)dipalladium(0) • Pd(dppf)Cl2: [1,1′-bis(diphenylphosphino)ferrocene]dichloropalladium(II) • Pd(PPh3)4: tetrakis(triphenylphosphine)palladium(0) • TEA: triethylamine • TFA: trifluoroacetic acid • THF: tetrahydrofuran • Xphos: 2-dicyclohexylphosphino-2′,4′,6′-triisopropylbiphenyl • Xphos Pd G3: (2-dicyclohexylphosphino-2′,4′,6′-triisopropyl-1,1′-biphenyl)[2-(2′-amino-1,1′-biphenyl)]palladium(II) methanesulfonic acid salt • 10% Pd/C: Palladium 10% on Carbon (wetted with ca. 55% water) • APS: aminopropylated silica gel • ODS: octadecyl-silylated silica gel • Method A: column chromatography with an aminopropylated silica gel column followed by a silica gel column • Chiral preparative column chromatography: chiral preparative column chromatography using YMC CHIRALART Cellulose-SB • Ref. No.: Reference Example Number • Str.: structural formula • Ex. No.: Example Number • Phys. data: physical data • ^1H-NMR: hydrogen nuclear magnetic resonance spectrum • CDCl3: chloroform-d1 • MS: mass spectrometry (The measured values in the tables were measured by electrospray ionization or multiionization using electrospray ionization-atmospheric pressure chemical ionization.) • Act.: activation rate of test substance at a compound concentration of 10 μM calculated by setting the fluorescence intensity obtained when human orexin A peptide was added at a concentration of 1 μM as 100% and the fluorescence intensity obtained when the medium alone was added as 0% • CHO: Chinese hamster ovary • HEPES: 2-[4-(2-hydroxyethyl)-1-piperazinyl]ethanesulfonic acid
A human OX2R sequence (Accession No. NM_001526.4) was inserted into the multiple cloning site of pcDNA3.4 (Life Technologies Japan Ltd.) to clone a plasmid vector for human OX2R expression. The plasmid was introduced into CHO-K1 cells using Lipofectamine 2000 (Life Technologies Japan Ltd.). Two days later, the transgenic CHO-K1 cells were passaged into 175T flasks and cultured selectively for 6 days. As a selection medium, Ham's F-12 Nutrient Mix (Life Technologies Japan Ltd.), containing Geneticin (registered trademark) (Life Technologies Japan Ltd.) at a final concentration of 1 mg/mL and inactivated fetal bovine serum (Biowest) at a final concentration of 10%, was used. After the selective culture, the cells were reseeded into 96-well plates, and a human OX2R-expressing cell line was obtained by limiting dilution.
The agonist effects of test substances on human OX2R were evaluated using the intracellular calcium concentration-change upon stimulation as an indicator. A day before measurement of the intracellular calcium concentrations, human OX2R-expressing cells suspended in a medium were seeded into 384-well plates at 5×10^3 cells/50 μL/well and cultured overnight in an incubator set at 37° C. and 5% CO2. After incubation, the medium was removed and replaced with 20 μL of a loading buffer. […]

Row | Compound | Act. (%): activation rate of test substance
1 | CS(=O)(=O)N[C@H]1CC[C@](Cc2cccc(-c3ccccc3)c2)(C(=O)NCCO)C1 (relative stereo) [Example 73, (1R*,3S*)-1-([1,1′-Biphenyl]-3-ylmethyl)-N-(2-hydroxyethyl)-3-(methylsulfonamido)cyclopentane-1-carboxamide] | 36%
2 | CS(=O)(=O)N[C@H]1CC[C@](Cc2cccc(-c3ccccc3)c2)(C(=O)NCC(F)(F)F)C1 (relative stereo) [Example 74, (1R*,3S*)-1-([1,1′-Biphenyl]-3-ylmethyl)-3-(methylsulfonamido)-N-(2,2,2-trifluoroethyl)cyclopentane-1-carboxamide] | 33%
3 | CS(=O)(=O)N[C@H]1CC[C@](Cc2cccc(-c3ccccc3)c2)(C(=O)N2CCC(F)(F)C2)C1 (relative stereo) [Example 75] | 23%
4 | CON(C)C(=O)C1(Cc2cccc(-c3ncccn3)c2)CCC(NS(C)(=O)=O)C1 (single isomer, unassigned) [Example 46, N-Methoxy-N-methyl-3-(methylsulfonamido)-1-(3-(pyrimidin-2-yl)benzyl)cyclopentane-1-carboxamide] | 93%
5 | CON(C)C(=O)C1(Cc2cccc(-c3ncccn3)c2)CCC(NS(C)(=O)=O)C1 (single isomer, unassigned) [Example 47, N-Methoxy-N-methyl-3-(methylsulfonamido)-1-(3-(pyrimidin-2-yl)benzyl)cyclopentane-1-carboxamide] | 52%
6 | CON(C)C(=O)[C@@]1(Cc2ccc(F)c(-c3ncc(F)cn3)c2)CC[C@H](NS(C)(=O)=O)C1 [Example 48, (1R,3S)-1-(4-Fluoro-3-(5-fluoropyrimidin-2-yl)benzyl)-N-methoxy-N-methyl-3-(methylsulfonamido)cyclopentane-1-carboxamide] | 101%
7 | CON(C)C(=O)[C@@]1(Cc2ccc(Cl)c(-c3ncc(F)cn3)c2)CC[C@H](NS(C)(=O)=O)C1 [Example 49, (1R,3S)-1-(4-Chloro-3-(5-fluoropyrimidin-2-yl)benzyl)-N-methoxy-N-methyl-3-(methylsulfonamido)cyclopentane-1-carboxamide] | 88%
8 | CON(C)C(=O)[C@@]1(Cc2ccc(F)c(-c3ncc(F)cn3)c2)CC[C@H](NS(=O)(=O)CF)C1 [Example 50, (1R,3S)-1-(4-Fluoro-3-(5-fluoropyrimidin-2-yl)benzyl)-3-((fluoromethyl)sulfonamido)-N-methoxy-N-methylcyclopentane-1-carboxamide] | 110%
9 | CON(C)C(=O)[C@@]1(Cc2ccc(F)c(-c3ncc(F)cn3)c2)CC[C@H](NS(=O)(=O)C(F)F)C1 [Example 51, (1R,3S)-3-((Difluoromethyl)sulfonamido)-1-(4-fluoro-3-(5-fluoropyrimidin-2-yl)benzyl)-N-methoxy-N-methylcyclopentane-1-carboxamide] | 98%
10 | CCS(=O)(=O)N[C@H]1CC[C@](Cc2ccc(F)c(-c3ncc(F)cn3)c2)(C(=O)N(C)OC)C1 [Example 52, (1R,3S)-3-(Ethylsulfonamido)-1-(4-fluoro-3-(5-fluoropyrimidin-2-yl)benzyl)-N-methoxy-N-methylcyclopentane-1-carboxamide] | 99%
11 | C=CS(=O)(=O)N[C@H]1CC[C@](Cc2ccc(F)c(-c3ncc(F)cn3)c2)(C(=O)N(C)OC)C1 [Example 53, (1R,3S)-1-(4-Fluoro-3-(5-fluoropyrimidin-2-yl)benzyl)-N-methoxy-N-methyl-3-(vinylsulfonamido)cyclopentane-1-carboxamide] | 106%
12 | CON(C)C(=O)[C@@]1(Cc2ccc(F)c(-c3ncc(F)cn3)c2)CC[C@H](NS(=O)(=O)C2COC2)C1 [Example 54, (1R,3S)-1-(4-Fluoro-3-(5-fluoropyrimidin-2-yl)benzyl)-N-methoxy-N-methyl-3-(oxetane-3-sulfonamido)cyclopentane-1-carboxamide] | 90%
13 | CON(C)C(=O)[C@@]1(Cc2ccc(O)c(-c3ncc(F)cn3)c2)CC[C@H](NS(C)(=O)=O)C1 [Example 55, (1R,3S)-1-(3-(5-Fluoropyrimidin-2-yl)-4-hydroxybenzyl)-N-methoxy-N-methyl-3-(methylsulfonamido)cyclopentane-1-carboxamide] | 106%
14 | COc1ccc(C[C@]2(C(=O)N(C)OC)CC[C@H](NS(C)(=O)=O)C2)cc1-c1ncc(F)cn1 [Example 56, (1R,3S)-1-(3-(5-Fluoropyrimidin-2-yl)-4-methoxybenzyl)-N-methoxy-N-methyl-3-(methylsulfonamido)cyclopentane-1-carboxamide] | 51%
15 | CON(C)C(=O)[C@@]1(Cc2cccc(-c3ncc(F)cn3)c2)C[C@H](F)[C@H](NS(C)(=O)=O)C1 [Example 57, (1R,3S,4R)-3-Fluoro-1-(3-(5-fluoropyrimidin-2-yl)benzyl)-N-methoxy-N-methyl-4-(methylsulfonamido)cyclopentane-1-carboxamide] | 92%
16 | CON(C)C(=O)[C@@]1(Cc2cccc(-c3ncc(F)cn3)c2)C[C@H](F)[C@H](NS(=O)(=O)C(C)C)C1 [Example 58, (1R,3S,4R)-3-Fluoro-1-(3-(5-fluoropyrimidin-2-yl)benzyl)-N-methoxy-N-methyl-4-((1-methylethyl)sulfonamido)cyclopentane-1-carboxamide] | 95%
17 | CCS(=O)(=O)N[C@@H]1C[C@@](Cc2cccc(-c3ncc(F)cn3)c2)(C(=O)N(C)OC)C[C@@H]1F [Example 59, (1R,3R,4S)-3-(Ethylsulfonamido)-4-fluoro-1-(3-(5-fluoropyrimidin-2-yl)benzyl)-N-methoxy-N-methylcyclopentane-1-carboxamide] | 98%
18 | CON(C)C(=O)[C@@]1(Cc2cccc(-c3ncc(F)cn3)c2)C[C@H](F)[C@H](NS(=O)(=O)C2CC2)C1 [Example 60, (1R,3R,4S)-3-(Cyclopropanesulfonamido)-4-fluoro-1-(3-(5-fluoropyrimidin-2-yl)benzyl)-N-methoxy-N-methylcyclopentane-1-carboxamide] | 94%
19 | CCS(=O)(=O)N[C@@H]1C[C@@](Cc2cc(-c3ncccn3)ccc2F)(C(=O)N(C)OC)C[C@@H]1F [Example 61, (1R,3R,4S)-3-(Ethylsulfonamido)-4-fluoro-1-(2-fluoro-5-(pyrimidin-2-yl)benzyl)-N-methoxy-N-methylcyclopentane-1-carboxamide] | 105%
20 | CON(C)C(=O)[C@@]1(Cc2ccc(Cl)c(-c3ncc(F)cn3)c2)C[C@H](F)[C@H](NS(C)(=O)=O)C1 [Example 62, (1R,3S,4R)-1-(4-Chloro-3-(5-fluoropyrimidin-2-yl)benzyl)-3-fluoro-N-methoxy-N-methyl-4-(methylsulfonamido)cyclopentane-1-carboxamide] | 96%
